Among the data in BindingDB's records for doi:10.1021/jm00100a018 (1992) are IC50 values, retold here.

SMILES strings stand for the structures. Structures can show the parent of a compound that is named as a salt.

A short description of assay [1]: Concentration tested in vitro to inhibit PAF-induced maximum aggregation (PAF-Antagonistic activity) by 50%.
Test in assay [2]: as above
This is another data set of the same source.

What is called IC50 is the concentration at which inhibition is half-maximal. The compound `O=C(CC(c1ccccc1)c1ccccc1)N1CCC(Nc2cccnc2)CC1` [3,3-Diphenyl-1-[4-(pyridin-3-ylamino)-piperidin-1-yl]-propan-1-one; dihydrochloride; hydrate] came in with an IC50 in assay [1] of 87 nM.
In assay [1], `N#CC(c1cccnc1)N1CCC(OC(=O)CC(c2ccccc2)c2ccccc2)CC1` (stereo not given) [3,3-Diphenyl-propionic acid 1-(cyano-pyridin-3-yl-methyl)-piperidin-4-yl ester; dihydrochloride; hydrate] showed an IC50 of 2600 nM.
On to `N#CC(c1cccnc1)N1CCN(C(=O)OCC(c2ccccc2)c2ccccc2)CC1` (stereo not given) [4-(Cyano-pyridin-3-yl-methyl)-piperazine-1-carboxylic acid 2,2-diphenyl-ethyl ester; dihydrochloride; hydrate], for which the IC50 in assay [1] was determined as 26 nM.
Consider `N#CC(c1cccnc1)N1CCN(C(=O)c2ccccc2)CC1` (stereo not given) [(4-Benzoyl-piperazin-1-yl)-pyridin-3-yl-acetonitrile; dihydrochloride], for which, in assay [1], the IC50 worked out at 4800 nM.
`COc1cc(C(=O)N2CCN(Cc3cccnc3)CC2)cc(OC)c1OC` [(4-Pyridin-3-ylmethyl-piperazin-1-yl)-(3,4,5-trimethoxy-phenyl)-methanone; dihydrochloride; hydrate] had an IC50 in assay [1] of 17000 nM.
Still for that read-out and setting: as for `CN(CCCc1ccccc1)CC(=O)N1CCN(C(C#N)c2cccnc2)CC1` (stereo not given) [(4-{2-[Methyl-(3-phenyl-propyl)-amino]-acetyl}-piperazin-1-yl)-pyridin-3-yl-acetonitrile; dihydrochloride; hydrate], the figure is 2200 nM; as for `COc1cc(C(=O)N2CCN(C(C#N)c3cccnc3)CC2)cc(OC)c1OC` (stereo not given) [Pyridin-3-yl-[4-(3,4,5-trimethoxy-benzoyl)-piperazin-1-yl]-acetonitrile; dihydrochloride; hydrate], 1900 nM.
On to `COc1cc(CCC(=O)N2CCN(C(C#N)c3cccnc3)CC2)cc(OC)c1OC` (stereo not given) [Pyridin-3-yl-{4-[3-(3,4,5-trimethoxy-phenyl)-propionyl]-piperazin-1-yl}-acetonitrile; dihydrochloride; hydrate], for which the IC50 in assay [1] was 400 nM.
On to `CC(C(=O)N1CCN(C(C#N)c2cccnc2)CC1)(c1ccccc1)c1ccccc1` (stereo not given) [[4-(2,2-Diphenyl-propionyl)-piperazin-1-yl]-pyridin-3-yl-acetonitrile; dihydrochloride], for which the midpoint of inhibition in assay [1], the IC50, lay at 1.9 nM.
Same read-out and setting: the value for `N#CC(c1cccnc1)N1CCN(C(=O)C(Cc2ccccc2)Cc2ccccc2)CC1` (stereo not given) [[4-(2-Benzyl-3-phenyl-propionyl)-piperazin-1-yl]-pyridin-3-yl-acetonitrile; dihydrochloride; hydrate] was 11 nM.
Same read-out and setting: the value for `N#CC(c1cccnc1)N1CCN(C(=O)CNCc2ccccc2)CC1` (stereo not given) [[4-(2-Benzylamino-acetyl)-piperazin-1-yl]-pyridin-3-yl-acetonitrile; dihydrochloride; hydrate] was 240 nM.
For the compound `CC(C(=O)N1CCN(C(C#N)c2cccnc2)CC1)c1ccccc1` (stereo not given) [[4-(2-Phenyl-propionyl)-piperazin-1-yl]-pyridin-3-yl-acetonitrile; dihydrochloride], the half-maximal inhibitory concentration (IC50) in assay [1] is 21 nM.
Still for that read-out and setting: the value for `N#CC(c1ccncc1)N1CCN(C(=O)CC(c2ccccc2)c2ccccc2)CC1` (stereo not given) [[4-(3,3-Diphenyl-propionyl)-piperazin-1-yl]-pyridin-4-yl-acetonitrile; dihydrochloride] was 51 nM; that for `N#CC(c1cccnc1)N1CCN(C(=O)CCc2ccccc2)CC1` (stereo not given) [[4-(3-Phenyl-propionyl)-piperazin-1-yl]-pyridin-3-yl-acetonitrile; dihydrochloride; hydrate] was 520 nM.
`N#CC(c1cccnc1)N1CCN(C(=O)c2ccc3ccccc3c2)CC1` (stereo not given) [[4-(Naphthalene-2-carbonyl)-piperazin-1-yl]-pyridin-3-yl-acetonitrile; dihydrochloride]: in assay [2], half-maximal inhibition (IC50) was put at 25000 nM.
